Test results as given in patent US20260262643A1, “HERBICIDAL BENZOXAZINES” (FMC CORPORATION, priority 2022, published 2026).

Columns and labels:
barnyardgrass [1] = test: Test C preemergence; assay type: in vivo, Echinochloa crusgalli
In short: (§1)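 Soil-applied (pre) and foliar (post, 1–2 leaf, 2–10 cm) sprays; surfactant-containing non-phytotoxic solvent vehicle; loam/sand substrate. Readout: visual % control at 10 d, greenhouse, versus untreated.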

blackgrass [2] = test: Test C preemergence; assay type: in vivo, Alopecurus myosuroides
In short: as §1

corn [3] = test: Test C preemergence; assay type: in vivo, Zea mays
In short: as §1

green foxtail [4] = test: Test C preemergence; assay type: in vivo, Setaria viridis
In short: as §1

kochia [5] = test: Test C preemergence; assay type: in vivo, Bassia scoparia
In short: as §1

oat, wild [6] = test: Test C preemergence; assay type: in vivo, Avena fatua
In short: as §1

pigweed, palmer [7] = test: Test C preemergence; assay type: in vivo, Amaranthus palmeri
In short: as §1

ragweed [8] = test: Test C preemergence; assay type: in vivo, Ambrosia artemisiifolia
In short: as §1

ryegrass, Italian [9] = test: Test C preemergence; assay type: in vivo, Lolium multiflorum
In short: as §1

soybean [10] = test: Test C preemergence; assay type: in vivo, Glycine max
In short: as §1

wheat [11] = test: Test C preemergence; assay type: in vivo, Triticum aestivum
In short: as §1

barnyardgrass [12] = test: Test C postemergence; assay type: in vivo, Echinochloa crusgalli; details: 10 days, 0 to 100 scale (0 no effect, 100 complete control)
In short: as §1

blackgrass [13] = test: Test C postemergence; assay type: in vivo, Alopecurus myosuroides; details: 10 days, 0 to 100 scale (0 no effect, 100 complete control)
In short: as §1

corn [14] = test: Test C postemergence; assay type: in vivo, Zea mays; details: 10 days, 0 to 100 scale (0 no effect, 100 complete control)
In short: as §1

green foxtail [15] = test: Test C postemergence; assay type: in vivo, Setaria viridis; details: 10 days, 0 to 100 scale (0 no effect, 100 complete control)
In short: as §1

kochia [16] = test: Test C postemergence; assay type: in vivo, Bassia scoparia; details: 10 days, 0 to 100 scale (0 no effect, 100 complete control)
In short: as §1

oat, wild [17] = test: Test C postemergence; assay type: in vivo, Avena fatua; details: 10 days, 0 to 100 scale (0 no effect, 100 complete control)
In short: as §1

pigweed, palmer [18] = test: Test C postemergence; assay type: in vivo, Amaranthus palmeri; details: 10 days, 0 to 100 scale (0 no effect, 100 complete control)
In short: as §1

ragweed [19] = test: Test C postemergence; assay type: in vivo, Ambrosia artemisiifolia; details: 10 days, 0 to 100 scale (0 no effect, 100 complete control)
In short: as §1

ryegrass, Italian [20] = test: Test C postemergence; assay type: in vivo, Lolium multiflorum; details: 10 days, 0 to 100 scale (0 no effect, 100 complete control)
In short: as §1

soybean [21] = test: Test C postemergence; assay type: in vivo, Glycine max; details: 10 days, 0 to 100 scale (0 no effect, 100 complete control)
In short: as §1

wheat [22] = test: Test C postemergence; assay type: in vivo, Triticum aestivum; details: 10 days, 0 to 100 scale (0 no effect, 100 complete control)
In short: as §1

galium = test: Test C postemergence; assay type: in vivo, Galium aparine; details: 10 days, 0 to 100 scale (0 no effect, 100 complete control)
In short: as §1

horseweed = test: Test C postemergence; assay type: in vivo, Erigeron canadensis; details: 10 days, 0 to 100 scale (0 no effect, 100 complete control)
In short: as §1

barnyardgrass [23] = test: Test D flooded paddy test; assay type: in vivo, Echinochloa crus-galli; details: 250 g ai/ha, applied to paddy water, visual rating after 13 to 14 days, scale 0 to 100 (0 no effect, 100 complete control)
In short: (§2)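 Plants at the 2-leaf stage were grown in pots flooded to 3 cm, and compound was applied directly into the paddy water, with depth kept throughout. After 13–14 days in a greenhouse, injury was rated visually against untreated controls on a 0–100 scale (100 = complete control); a dash means not tested.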

ducksalad = test: Test D flooded paddy test; assay type: in vivo, Heteranthera limosa; details: 250 g ai/ha, applied to paddy water, visual rating after 13 to 14 days, scale 0 to 100 (0 no effect, 100 complete control)
In short: as §2

rice = test: Test D flooded paddy test; assay type: in vivo, Oryza sativa; details: 250 g ai/ha, applied to paddy water, visual rating after 13 to 14 days, scale 0 to 100 (0 no effect, 100 complete control)
In short: as §2

sedge, umbrella = test: Test D flooded paddy test; assay type: in vivo, Cyperus difformis; details: 250 g ai/ha, applied to paddy water, visual rating after 13 to 14 days, scale 0 to 100 (0 no effect, 100 complete control)
In short: as §2

[24] = 500 g ai/ha, preemergence, 0 to 100 scale (0 no effect, 100 complete control)
[25] = Preemergence, 125 g ai/ha, 0 to 100 scale, 0 no effect, 100 complete control

In the case of `C[C@H]1CN(C(=O)c2cccc(-n3cnc(C4CC4)n3)c2)c2cccc(Cl)c2O1` [Compound 325], the “Barnyardgrass plant response rating” value (barnyardgrass [1]; [24]) was 100, the “Plant response rating, Barnyardgrass” value (barnyardgrass [1]; [25]) was 40 and the “Blackgrass plant response rating” value (blackgrass [2]; [24]) was 80. The “Plant response rating, Blackgrass” value (blackgrass [2]; [25]) was 60, the “Corn plant response rating” value (corn [3]; [24]) was 10 and the “Plant response rating, Corn” value (corn [3]; [25]) was 10. The “Foxtail, Green plant response rating” value (green foxtail [4]; [24]) was 100, the “Plant response rating, Foxtail, Green” value (green foxtail [4]; [25]) was 100 and the “Kochia plant response rating” value (kochia [5]; [24]) was 90. The “Plant response rating, Kochia” value (kochia [5]; [25]) was 40, the “Oat, Wild plant response rating” value (oat, wild [6]; [24]) was 90 and the “Plant response rating, Oat, Wild” value (oat, wild [6]; [25]) was 60. The “Pigweed, Palmer plant response rating” value (pigweed, palmer [7]; [24]) was 100, the “Plant response rating, Pigweed, Palmer” value (pigweed, palmer [7]; [25]) was 100 and the “Ragweed plant response rating” value (ragweed [8]; [24]) was 70. For the same compound, the “Plant response rating, Ragweed” value (ragweed [8]; [25]) was 20, the “Ryegrass, Italian plant response rating” value (ryegrass, Italian [9]; [24]) was 90 and the “Plant response rating, Ryegrass, Italian” value (ryegrass, Italian [9]; [25]) was 60. For the same compound, the “Soybean plant response rating” value (soybean [10]; [24]) was 40, the “Plant response rating, Soybean” value (soybean [10]; [25]) was 40 and the “Wheat plant response rating” value (wheat [11]; [24]) was 30. The “Plant response rating, Wheat” value (wheat [11]; [25]) was 10, the “Plant response rating, Barnyardgrass” value (barnyardgrass [12]; 500 g ai/ha, postemergence) was 80 and the “Plant response rating, Barnyardgrass” value (barnyardgrass [12]; Postemergence, 125 g ai/ha) was 40. The “Plant response rating, Blackgrass” value (blackgrass [13]; 500 g ai/ha, postemergence) was 70, the “Plant response rating, Blackgrass” value (blackgrass [13]; Postemergence, 125 g ai/ha) was 10 and the “Plant response rating, Corn” value (corn [14]; 500 g ai/ha, postemergence) was 50. For the same compound, the “Plant response rating, Corn” value (corn [14]; Postemergence, 125 g ai/ha) was 30, the “Plant response rating, Foxtail, Green” value (green foxtail [15]; 500 g ai/ha, postemergence) was 90 and the “Plant response rating, Foxtail, Green” value (green foxtail [15]; Postemergence, 125 g ai/ha) was 60. The “Plant response rating, Kochia” value (kochia [16]; 500 g ai/ha, postemergence) was 90, the “Plant response rating, Kochia” value (kochia [16]; Postemergence, 125 g ai/ha) was 90 and the “Plant response rating, Oat, Wild” value (oat, wild [17]; 500 g ai/ha, postemergence) was 70. For the same compound, the “Plant response rating, Oat, Wild” value (oat, wild [17]; Postemergence, 125 g ai/ha) was 10, the “Plant response rating, Pigweed, Palmer” value (pigweed, palmer [18]; 500 g ai/ha, postemergence) was 100 and the “Plant response rating, Pigweed, Palmer” value (pigweed, palmer [18]; Postemergence, 125 g ai/ha) was 90. For the same compound, the “Plant response rating, Ragweed” value (ragweed [19]; 500 g ai/ha, postemergence) was 70, the “Plant response rating, Ragweed” value (ragweed [19]; Postemergence, 125 g ai/ha) was 50 and the “Plant response rating, Ryegrass, Italian” value (ryegrass, Italian [20]; 500 g ai/ha, postemergence) was 80. The “Plant response rating, Ryegrass, Italian” value (ryegrass, Italian [20]; Postemergence, 125 g ai/ha) was 30, the “Plant response rating, Soybean” value (soybean [21]; 500 g ai/ha, postemergence) was 100 and the “Plant response rating, Soybean” value (soybean [21]; Postemergence, 125 g ai/ha) was 100. The “Plant response rating, Wheat” value (wheat [22]; 500 g ai/ha, postemergence) was 60, the “Plant response rating, Wheat” value (wheat [22]; Postemergence, 125 g ai/ha) was 20 and the “Plant response rating, Galium” value (galium; 500 g ai/ha, postemergence) was 100. The “Plant response rating, Galium” value (galium; Postemergence, 125 g ai/ha) was 100, the “Plant response rating, Horseweed” value (horseweed; 500 g ai/ha, postemergence) was 60 and the “Plant response rating, Horseweed” value (horseweed; Postemergence, 125 g ai/ha) was 0. For the same compound, the “Plant response rating, Barnyardgrass (Flood)” value (barnyardgrass [23]) was 0, the “Plant response rating, Ducksalad (Flood)” value (ducksalad) was 35 and the “Plant response rating, Rice (Flood)” value (rice) was 0. The “Plant response rating, Sedge, Umbrella (Flood)” value (sedge, umbrella) was 75.
